Test results: patent publication US20100152434A1, “Protein Kinase-binding Nucleosides and Associated Methods” (priority 2007, published 2010)

Tests used:
MOLT-4 = details: single dose (10 μM)
HOP-92 = details: single dose (10 μM)
LOX IMVI = details: single dose (10 μM)
RXF 393 = details: RXF393; single dose (10 μM)
UO-31 = details: single dose (10 μM)

**Q.** `CNC(=O)NC[C@H]1O[C@@H](n2cnc3c(NC(=O)Nc4ccccc4)ncnc32)C2OC(=O)C[C@H]21` (some centres unmarked) [Compound 33, 3′-(Carboxymethyl)-3′,5′-dideoxy-5′-[(N-methylcarbamoyl)amino]-N^6-(N-phenylcarbamoyl)adenosine-2′,3′-lactone] was tested. Which “anticancer activity (GI)” value (MOLT-4) did it give?
**A.** potent and selective anticancer activities

**Q.** And the “anticancer activity (GI)” value (HOP-92)?
**A.** potent and selective anticancer activities

**Q.** What about the “anticancer activity (GI)” value (LOX IMVI) of the same compound?
**A.** potent and selective anticancer activities

**Q.** What about the “anticancer activity (GI)” value (RXF 393) of the same compound?
**A.** potent and selective anticancer activities

**Q.** And the “anticancer activity (GI)” value (UO-31)?
**A.** potent and selective anticancer activities
